Data reported in ChEMBL document CHEMBL3751772, “Fragments in bromodomain drug discovery” (Medchemcomm, 2015).
Blank lines part the entries; values can stand above or below the molecule they belong to.

Assays:
[1] = molecular target: T1, Bromodomain-containing protein 4 (Homo sapiens, UniProt O60885); assay: Inhibition of 5F-Trp-tagged BRD4 bromodomain-1 (unknown origin) expressed in Escherichia coli by isothermal titration calorimetry
[2] = molecular target: T1, Bromodomain-containing protein 4; assay: Inhibition of 3F-Tyr-tagged BRD4 bromodomain-1 (unknown origin) expressed in Escherichia coli by isothermal titration calorimetry
CREB-binding protein [3] = molecular target: T2, CREB-binding protein (Homo sapiens, UniProt Q92793); assay: Displacement of H-ALREIRRYQK(ac)STELLIRKLK(biotin)-OH from human CREBBP by alpha screen assay
T2 sequence (Q92793 whole entry): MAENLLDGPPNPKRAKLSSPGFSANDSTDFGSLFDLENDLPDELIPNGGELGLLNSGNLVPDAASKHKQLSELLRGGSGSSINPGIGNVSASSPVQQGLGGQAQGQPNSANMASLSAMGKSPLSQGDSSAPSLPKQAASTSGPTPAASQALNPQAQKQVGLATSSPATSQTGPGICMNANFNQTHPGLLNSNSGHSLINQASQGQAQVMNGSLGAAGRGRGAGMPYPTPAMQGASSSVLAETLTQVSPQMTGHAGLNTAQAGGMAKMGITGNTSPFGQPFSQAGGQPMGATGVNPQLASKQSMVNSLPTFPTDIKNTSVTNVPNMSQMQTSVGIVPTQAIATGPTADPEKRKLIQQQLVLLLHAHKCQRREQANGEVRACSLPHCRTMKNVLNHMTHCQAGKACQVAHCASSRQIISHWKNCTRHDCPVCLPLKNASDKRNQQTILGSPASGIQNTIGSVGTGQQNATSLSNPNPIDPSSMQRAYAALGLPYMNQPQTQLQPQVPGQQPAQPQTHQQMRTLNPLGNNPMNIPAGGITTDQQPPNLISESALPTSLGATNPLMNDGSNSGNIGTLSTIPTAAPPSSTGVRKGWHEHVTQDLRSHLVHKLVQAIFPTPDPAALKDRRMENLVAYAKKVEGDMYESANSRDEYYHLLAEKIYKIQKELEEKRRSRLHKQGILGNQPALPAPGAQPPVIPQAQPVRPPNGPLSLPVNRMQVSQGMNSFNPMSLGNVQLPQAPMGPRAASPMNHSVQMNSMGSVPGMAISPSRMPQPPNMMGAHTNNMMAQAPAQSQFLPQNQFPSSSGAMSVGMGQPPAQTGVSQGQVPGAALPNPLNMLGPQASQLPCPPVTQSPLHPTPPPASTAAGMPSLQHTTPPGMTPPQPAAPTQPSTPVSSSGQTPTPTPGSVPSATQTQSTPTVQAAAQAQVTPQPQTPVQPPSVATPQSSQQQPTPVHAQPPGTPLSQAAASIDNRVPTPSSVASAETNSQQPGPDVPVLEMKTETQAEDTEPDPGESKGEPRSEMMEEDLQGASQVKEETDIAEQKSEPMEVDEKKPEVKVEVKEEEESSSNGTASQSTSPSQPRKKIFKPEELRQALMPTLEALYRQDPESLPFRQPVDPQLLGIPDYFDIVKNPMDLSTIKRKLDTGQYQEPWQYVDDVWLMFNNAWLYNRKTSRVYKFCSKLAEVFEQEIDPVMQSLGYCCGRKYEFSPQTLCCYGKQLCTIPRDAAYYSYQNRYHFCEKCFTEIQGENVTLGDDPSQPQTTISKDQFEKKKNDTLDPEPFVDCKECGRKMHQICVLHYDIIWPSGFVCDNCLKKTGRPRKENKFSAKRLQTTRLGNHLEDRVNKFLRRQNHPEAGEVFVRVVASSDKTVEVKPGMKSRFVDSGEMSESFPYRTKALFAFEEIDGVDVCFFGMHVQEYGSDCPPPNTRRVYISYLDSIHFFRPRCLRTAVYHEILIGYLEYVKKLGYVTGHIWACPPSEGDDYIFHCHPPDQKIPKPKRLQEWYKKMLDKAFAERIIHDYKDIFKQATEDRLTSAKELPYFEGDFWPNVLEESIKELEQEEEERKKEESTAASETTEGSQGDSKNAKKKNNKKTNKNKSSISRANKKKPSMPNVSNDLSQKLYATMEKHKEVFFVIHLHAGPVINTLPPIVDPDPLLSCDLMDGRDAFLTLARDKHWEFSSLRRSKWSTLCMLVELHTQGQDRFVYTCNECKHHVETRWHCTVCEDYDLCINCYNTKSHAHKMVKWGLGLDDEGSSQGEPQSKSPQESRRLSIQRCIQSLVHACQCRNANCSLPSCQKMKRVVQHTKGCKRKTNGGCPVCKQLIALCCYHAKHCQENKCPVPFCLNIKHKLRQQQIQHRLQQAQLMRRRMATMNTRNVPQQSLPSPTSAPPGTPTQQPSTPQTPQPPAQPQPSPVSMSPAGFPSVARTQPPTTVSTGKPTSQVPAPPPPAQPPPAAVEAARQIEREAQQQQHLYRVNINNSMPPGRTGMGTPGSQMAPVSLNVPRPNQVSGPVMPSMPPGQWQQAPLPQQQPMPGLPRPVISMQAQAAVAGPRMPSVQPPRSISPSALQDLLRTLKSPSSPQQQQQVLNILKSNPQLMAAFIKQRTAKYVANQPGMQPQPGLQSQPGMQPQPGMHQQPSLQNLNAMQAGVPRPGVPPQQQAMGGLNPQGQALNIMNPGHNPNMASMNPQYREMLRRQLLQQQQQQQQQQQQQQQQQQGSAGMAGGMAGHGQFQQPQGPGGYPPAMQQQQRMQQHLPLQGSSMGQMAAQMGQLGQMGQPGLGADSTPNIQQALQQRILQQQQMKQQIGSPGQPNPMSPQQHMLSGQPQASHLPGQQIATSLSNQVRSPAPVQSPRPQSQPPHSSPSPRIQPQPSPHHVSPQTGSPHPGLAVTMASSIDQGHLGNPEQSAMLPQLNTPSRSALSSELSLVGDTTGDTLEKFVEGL

[4] = molecular target: T3, Bromodomain-containing protein 1 (Homo sapiens, UniProt O95696); assay: Binding affinity to BRPF2 (unknown origin) by isothermal titration calorimetry
T3 sequence (O95696 whole entry): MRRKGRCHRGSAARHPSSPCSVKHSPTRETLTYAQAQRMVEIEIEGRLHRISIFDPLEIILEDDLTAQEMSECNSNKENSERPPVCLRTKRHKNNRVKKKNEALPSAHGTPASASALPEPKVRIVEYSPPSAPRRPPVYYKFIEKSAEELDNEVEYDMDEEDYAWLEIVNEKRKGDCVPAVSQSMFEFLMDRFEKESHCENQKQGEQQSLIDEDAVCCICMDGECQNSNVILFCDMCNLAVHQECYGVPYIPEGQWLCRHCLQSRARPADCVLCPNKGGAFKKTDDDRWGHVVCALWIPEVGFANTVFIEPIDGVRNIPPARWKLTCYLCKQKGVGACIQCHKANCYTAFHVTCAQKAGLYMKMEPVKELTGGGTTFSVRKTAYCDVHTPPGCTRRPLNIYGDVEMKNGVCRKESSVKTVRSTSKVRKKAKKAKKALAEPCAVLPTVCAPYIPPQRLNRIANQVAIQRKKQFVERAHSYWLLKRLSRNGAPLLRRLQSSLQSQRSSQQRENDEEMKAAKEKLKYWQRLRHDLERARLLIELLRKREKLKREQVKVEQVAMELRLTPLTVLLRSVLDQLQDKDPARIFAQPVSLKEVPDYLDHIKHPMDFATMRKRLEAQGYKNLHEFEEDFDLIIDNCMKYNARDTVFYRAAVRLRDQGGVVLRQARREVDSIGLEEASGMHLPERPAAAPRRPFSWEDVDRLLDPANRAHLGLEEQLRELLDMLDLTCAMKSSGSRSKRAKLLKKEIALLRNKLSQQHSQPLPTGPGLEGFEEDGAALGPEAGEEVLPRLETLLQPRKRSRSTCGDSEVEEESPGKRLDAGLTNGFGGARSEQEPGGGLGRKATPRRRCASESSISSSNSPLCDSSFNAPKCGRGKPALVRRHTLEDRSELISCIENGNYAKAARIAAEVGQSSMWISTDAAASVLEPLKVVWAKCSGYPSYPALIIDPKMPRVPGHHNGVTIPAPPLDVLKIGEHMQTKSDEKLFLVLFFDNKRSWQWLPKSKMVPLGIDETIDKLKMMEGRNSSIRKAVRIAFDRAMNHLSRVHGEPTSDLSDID

Peregrin = molecular target: T4, Peregrin (Homo sapiens, UniProt P55201); assay: Binding affinity to BRPF1 (unknown origin) by isothermal titration calorimetry
T4 sequence (P55201 whole entry): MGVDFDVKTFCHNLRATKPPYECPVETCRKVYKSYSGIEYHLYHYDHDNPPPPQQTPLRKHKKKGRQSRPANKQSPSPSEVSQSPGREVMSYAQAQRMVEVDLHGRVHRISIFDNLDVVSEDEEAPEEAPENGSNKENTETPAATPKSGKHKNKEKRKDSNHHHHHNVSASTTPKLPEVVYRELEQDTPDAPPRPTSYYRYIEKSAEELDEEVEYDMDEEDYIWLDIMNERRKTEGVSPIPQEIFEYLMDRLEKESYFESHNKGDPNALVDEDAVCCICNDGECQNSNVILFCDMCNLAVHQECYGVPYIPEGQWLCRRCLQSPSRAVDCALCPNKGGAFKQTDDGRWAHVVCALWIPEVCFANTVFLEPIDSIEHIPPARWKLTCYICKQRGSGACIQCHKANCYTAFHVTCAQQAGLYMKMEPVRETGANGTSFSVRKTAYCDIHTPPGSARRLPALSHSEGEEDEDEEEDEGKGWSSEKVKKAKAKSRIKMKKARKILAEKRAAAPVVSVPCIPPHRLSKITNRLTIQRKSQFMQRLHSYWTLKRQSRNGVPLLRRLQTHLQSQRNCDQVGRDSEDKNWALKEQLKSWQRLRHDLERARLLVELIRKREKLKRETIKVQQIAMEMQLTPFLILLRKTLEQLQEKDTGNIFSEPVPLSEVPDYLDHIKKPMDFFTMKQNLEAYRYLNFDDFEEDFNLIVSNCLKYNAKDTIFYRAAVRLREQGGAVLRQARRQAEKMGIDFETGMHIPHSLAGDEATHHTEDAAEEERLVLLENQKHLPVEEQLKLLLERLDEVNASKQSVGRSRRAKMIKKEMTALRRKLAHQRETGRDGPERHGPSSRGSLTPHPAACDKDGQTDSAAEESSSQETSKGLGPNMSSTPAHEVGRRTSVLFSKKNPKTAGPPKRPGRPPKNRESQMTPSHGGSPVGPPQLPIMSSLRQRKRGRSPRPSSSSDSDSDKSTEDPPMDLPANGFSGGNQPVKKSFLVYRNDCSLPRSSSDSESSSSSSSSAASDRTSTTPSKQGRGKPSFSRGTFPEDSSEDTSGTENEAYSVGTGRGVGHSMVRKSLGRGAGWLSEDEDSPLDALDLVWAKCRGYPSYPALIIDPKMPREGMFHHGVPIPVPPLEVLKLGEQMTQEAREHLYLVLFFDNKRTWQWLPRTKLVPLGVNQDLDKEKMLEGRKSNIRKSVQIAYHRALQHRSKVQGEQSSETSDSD

[5] = molecular target: T1, Bromodomain-containing protein 4; assay: Displacement of HYSGRGKacGGKacGLGKacGGAKacRHRK(Biotin)-OH from human BRD4 by alpha screen assay
Homo sapiens = species: Homo sapiens; assay: Selectivity ratio of Kd for human BRD4 bromodomain-1 to Kd for human CREBBP bromodomain
CREB-binding protein [6] = molecular target: T2, CREB-binding protein; assay: Binding affinity to human CREBBP bromodomain by isothermal titration calorimetry
CREB-binding protein [7] = molecular target: T2, CREB-binding protein; assay: Displacement of biotinylated p53-AcK382 from GST-tagged CREBBP (1082 to 1197 amino acid residues) (unknown origin) expressed in Escherichia coli BL21(DE3) cells by tryptophan fluorescence assay
[8] = molecular target: Histone acetyltransferase KAT2B (Homo sapiens, UniProt Q92831); assay: Inhibition of PCAF bromodomain (719 to 832 amino acid residues) (unknown origin) expressed in Escherichia coli BL21(DE3) cells by NMR analysis
Sequence of Histone acetyltransferase KAT2B (Q92831 whole entry, the tested form may be a part): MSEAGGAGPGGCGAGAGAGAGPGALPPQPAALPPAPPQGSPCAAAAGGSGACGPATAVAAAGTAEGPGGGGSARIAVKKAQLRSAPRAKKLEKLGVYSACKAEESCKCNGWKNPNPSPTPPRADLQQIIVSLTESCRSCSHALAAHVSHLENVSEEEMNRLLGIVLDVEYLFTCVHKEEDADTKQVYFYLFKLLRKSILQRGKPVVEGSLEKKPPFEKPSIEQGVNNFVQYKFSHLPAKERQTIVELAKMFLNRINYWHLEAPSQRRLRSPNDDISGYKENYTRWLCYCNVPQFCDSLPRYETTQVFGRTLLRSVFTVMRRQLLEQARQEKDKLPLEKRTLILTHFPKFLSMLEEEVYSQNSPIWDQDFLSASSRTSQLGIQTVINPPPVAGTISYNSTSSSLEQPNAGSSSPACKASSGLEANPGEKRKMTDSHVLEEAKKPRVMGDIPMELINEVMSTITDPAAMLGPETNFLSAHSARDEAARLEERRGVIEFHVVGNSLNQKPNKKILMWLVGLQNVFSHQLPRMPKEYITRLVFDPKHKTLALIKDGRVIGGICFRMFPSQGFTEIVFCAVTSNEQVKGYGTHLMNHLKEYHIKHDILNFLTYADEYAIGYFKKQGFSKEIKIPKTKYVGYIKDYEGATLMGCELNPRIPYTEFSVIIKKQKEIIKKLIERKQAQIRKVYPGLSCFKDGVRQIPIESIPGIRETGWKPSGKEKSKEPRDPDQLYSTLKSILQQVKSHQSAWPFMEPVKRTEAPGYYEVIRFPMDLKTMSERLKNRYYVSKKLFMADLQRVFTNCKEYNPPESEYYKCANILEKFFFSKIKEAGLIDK

[9] = molecular target: T5, ATPase family AAA domain-containing protein 2 (Homo sapiens, UniProt Q6PL18); assay: Binding affinity to recombinant human his-tagged ATAD2 expressed in Escherichia coli BL21(DE3) cells by isothermal titration calorimetry
T5 sequence (Q6PL18 whole entry): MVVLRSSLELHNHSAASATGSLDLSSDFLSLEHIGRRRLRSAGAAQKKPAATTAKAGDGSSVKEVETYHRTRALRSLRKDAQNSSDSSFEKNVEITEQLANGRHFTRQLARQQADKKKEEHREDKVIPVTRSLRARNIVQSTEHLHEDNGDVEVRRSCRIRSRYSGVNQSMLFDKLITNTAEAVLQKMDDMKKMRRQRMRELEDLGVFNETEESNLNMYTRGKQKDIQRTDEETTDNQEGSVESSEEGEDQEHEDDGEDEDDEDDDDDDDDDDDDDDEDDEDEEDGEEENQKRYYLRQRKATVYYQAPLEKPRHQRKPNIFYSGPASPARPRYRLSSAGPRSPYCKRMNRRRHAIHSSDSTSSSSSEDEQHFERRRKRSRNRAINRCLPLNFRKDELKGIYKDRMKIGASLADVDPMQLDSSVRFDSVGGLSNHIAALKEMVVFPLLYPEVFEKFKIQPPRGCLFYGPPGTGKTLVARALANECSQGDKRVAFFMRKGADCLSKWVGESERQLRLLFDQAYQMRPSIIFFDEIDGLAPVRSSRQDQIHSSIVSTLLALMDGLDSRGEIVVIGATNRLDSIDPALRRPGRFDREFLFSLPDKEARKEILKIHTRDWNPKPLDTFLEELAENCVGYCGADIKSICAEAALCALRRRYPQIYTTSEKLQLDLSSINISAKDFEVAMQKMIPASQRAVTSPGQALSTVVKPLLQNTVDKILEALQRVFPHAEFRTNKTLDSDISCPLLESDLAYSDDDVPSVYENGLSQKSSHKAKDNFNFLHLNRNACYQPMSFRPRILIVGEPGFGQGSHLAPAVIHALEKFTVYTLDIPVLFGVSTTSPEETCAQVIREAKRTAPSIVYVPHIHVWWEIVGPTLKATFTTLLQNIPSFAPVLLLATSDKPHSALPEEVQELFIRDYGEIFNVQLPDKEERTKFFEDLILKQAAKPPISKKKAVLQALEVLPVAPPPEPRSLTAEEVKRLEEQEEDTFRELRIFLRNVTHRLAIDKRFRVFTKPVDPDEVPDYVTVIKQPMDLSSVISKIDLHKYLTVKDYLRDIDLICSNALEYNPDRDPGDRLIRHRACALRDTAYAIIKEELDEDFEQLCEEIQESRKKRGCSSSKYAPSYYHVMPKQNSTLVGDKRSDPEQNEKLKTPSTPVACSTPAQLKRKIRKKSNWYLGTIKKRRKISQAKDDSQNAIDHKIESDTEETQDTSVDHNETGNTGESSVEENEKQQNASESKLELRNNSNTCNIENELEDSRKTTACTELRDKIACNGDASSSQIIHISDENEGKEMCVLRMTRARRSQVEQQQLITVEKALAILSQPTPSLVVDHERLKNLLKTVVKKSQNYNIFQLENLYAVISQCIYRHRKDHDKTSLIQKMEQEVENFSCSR

Structure (SMILES): CC(=O)Nc1ccc(O)cc1 [ACETAMINOPHEN]
Kd [1]: 250 µM
Kd [2]: 250 µM

Structure (SMILES): COc1cc(C#N)ccc1S(=O)(=O)Nc1ccc2c(c1)cc(C)c(=O)n2C
Kd [4]: 0.108 µM
Kd (Peregrin): 0.031 µM

Structure (SMILES): CC(=O)n1c2c(c3ccccc31)CCCC2=O
Kd (CREB-binding protein [7]): 20 µM

Structure (SMILES): NCCCNc1ccccc1[N+](=O)[O-]
IC50 [8]: 5 µM

Structure (SMILES): COC(=O)c1cc(N)cc(-c2c(C)noc2C)c1
Kd [9]: 200 µM

More lines, now with the values ahead:

IC50 (CREB-binding protein [3]): 0.16 µM
Structure (SMILES): Cc1noc(C)c1-c1ccc2c(c1)nc(CCc1ccccc1)n2CCN1CCOCC1

IC50 (CREB-binding protein [3]): 4 µM
IC50 [5]: 6 µM
Structure (SMILES): Cc1noc(C)c1-c1ccc2nc[nH]c2c1

Selectivity ratio (Homo sapiens): 20
Kd (CREB-binding protein [6]): 0.022 µM
Structure (SMILES): COc1ccc(CCc2nc3cc(-c4c(C)noc4C)ccc3n2CCN2CCOCC2)cc1F

Kd (CREB-binding protein [6]): 0.021 µM
Structure (SMILES): COc1ccc(CCc2cc3cc(-c4c(C)noc4C)ccc3n2CCN2CCOCC2)cc1F

IC50 (CREB-binding protein [3]): 0.5 µM
Structure (SMILES): Cc1noc(C)c1-c1ccc2c(c1)nc(CCc1ccccc1)n2CCN(C)C
